Type in all cases: in vivo
Data set [1] concerns Cabbage Looper (Trichloplusia Ni, TRIPNI). Briefly: Insecticidal test for cabbage looper (CL), 128-well diet tray assay. The conditions noted are these: Trichoplusia ni, 168 h, read-out: CL % Control (or Mortality) rating. The essentials:
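Second-instar larvae on artificial diet treated with 50 μg/cm^2 compound (acetone-water 90:10), dried; held 25° C., 14:10 light-dark, five to seven days. Percent mortality per well, averaged over eight wells.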

For data set [2], the system named is Beet Armyworm (Spodoptera exigua, LAPHEG). Description: Insecticidal test for beet armyworm (BAW), 128-well diet tray assay. The settings on record: 168 h, 50 μg/cm^2 of test compound on artificial diet, second instar larvae, 25° C., five to seven days, average of eight wells, read-out: BAW % Control (or Mortality) rating. The essentials:
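Second-instar larvae placed on artificial diet surface-treated with 50 μg/cm^2 compound (in acetone-water), eight wells per compound. Held at 25° C, 14:10 light-dark for five to seven days; percent mortality averaged across the eight wells.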

Data set [3] deals with Yellow Fever Mosquito (Aedes aegypti, AEDSAE). Briefly: Insecticidal test for yellow fever mosquito (YFM), 96-well plate larval assay. The settings on record: from 4000 ppm DMSO master solution, diluted; about 1 day-old larvae; room temperature; scored after 3 days. The essentials: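 Compounds from 4000 ppm DMSO master stocks (diluted with 90:10 water/acetone) dispensed into wells, then infested with ~1-day-old Aedes aegypti larvae in liver-powder water; 6 replicate plates. Lidded plates held at room temperature 3 days, then each well scored for mortality.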

We go through four compounds from US11332452B2, “Pesticidal compositions and methods” (priority 2019, dated 2022).

The mortality is the percentage killed. `Cc1ccc(C(C)C)c(N2C(=O)CS/C2=N\C(=O)Nc2ccc(CCOC(=O)Nc3ccc(OC(F)(F)F)cc3)cc2)c1` [Compound A52, (Z)-4-(3-(3-(2-isopropyl-5-methylphenyl)-4-oxothiazolidin-2-ylidene)ureido)phenethyl (4-(trifluoromethoxy)phenyl)carbamate]: the mortality at 50 µg/cm2 in data set [1] and in data set [2] was 50 to 100% in each case. The “YFM % Control (or Mortality) rating” value in data set [3] is reported as “A (80-100)”.

For `Cc1ccc(C(C)C)c(N2C(=O)CS/C2=N\C(=O)NCCc2ccc(NC(=O)Oc3ccc(OC(F)(F)F)cc3)cc2)c1` [Compound A53, 4-(trifluoromethoxy)phenyl (Z)-(4-(2-(3-(3-(2-isopropyl-5-methylphenyl)-4-oxothiazolidin-2-ylidene)ureido)ethyl)phenyl)carbamate], the mortality at 50 µg/cm2 in data set [1] and in data set [2] was 50 to 100% throughout. The “YFM % Control (or Mortality) rating” value in data set [3] was “A (80-100)”.

Take `CC(C)c1ccccc1N1C(=O)CS/C1=N\C(=O)Nc1ccc(N/N=C/c2ccc(OC(F)(F)F)cc2)cc1` [Compound A54, 1-((Z)-3-(2-isopropylphenyl)-4-oxothiazolidin-2-ylidene)-3-(4-(2-((E)-4-(trifluoromethoxy)benzylidene)hydrazinyl)phenyl)urea]: the mortality at 50 µg/cm2 in data set [1] and in data set [2] was 50 to 100% throughout. The “YFM % Control (or Mortality) rating” value in data set [3] is “A (80-100)”.

For the compound `Cc1ccc(C(C)C)c(N2C(=O)CS/C2=N\C(=O)Nc2ccc(N/N=C/c3ccc(OC(F)(F)F)cc3)cc2)c1` [Compound A55, 1-((Z)-3-(2-Isopropyl-5-methylphenyl)-4-oxothiazolidin-2-ylidene)-3-(4-(2-((E)-4-(trifluoromethoxy)benzylidene)hydrazinyl)phenyl)urea], the mortality at 50 µg/cm2 in data set [1] and in data set [2] was 50 to 100% each time. Besides, the “YFM % Control (or Mortality) rating” value in data set [3] is “A (80-100)”.
